Tested on: Tetranychus urticae
Assay: Test Example 1: Controlling Rate against Tetranychus urticae on brush bean, spray
Format: in vivo
Settings: 500 ppm, 30 ml sprayed on brush bean (Phaseolus vulgaris) with female adults
Description: Each of the present compounds (2) to (15), (17) to (33), (36) to (40) and the comparative compound described below was formulated according to Formulation Example 5, and each formulations was diluted with water so that the concentration of the present compound or the comparative compound came to 500 ppm.
About twenty female adults of Tetranychus urticae were set free on brush bean (Phaseolus vulgaris) in the primary leaf stage, which had been potted in a plastic cup for 7 days after the seeding. After 1 day, a 30 ml of the diluted formulation described-above was sprayed over the plant. On the 8th and 13th day after the application, the numbers of lived Tetranychus urticae on the leaf of brush bean plant were examined, and the Controlling Rates were calculated by the following scheme. Controlling Rate=100×{1−(a number of lived Tetranychus urticae in the treatment)/(a number of lived Tetranychus urticae in the non-treatment)}

In the case of `Cc1nn(C)c(Oc2ccc(Oc3ccc(C(F)(F)F)cc3)cc2)c1C=NOCc1ccccc1` [comparative compound], the “Controlling Rate” value (8th day after the application) is reported as “less than 30%” and the “Controlling Rate” value (13th day after the application) is reported as “less than 30%”.

From patent publication US7442801B2, “Pyrazole compound” (Sumitomo Chemical Company, Limited, priority 2003, dated 2008)
